Source: patent US8158589B2, “Peptides with the capacity to bind to transforming growth factor β1 (TGF-β1)” (Proyecto Biomedicine Cima, S.L., priority 2003, dated 2012)
Ends that are not written are not given here.

How the values were obtained:
[1] = target: T1, TGF-β1 (Homo sapiens, UniProt P01137); assay: Western Blot of p-Smad2, Smad2/3 and Smad7 in primary culture of rabbit corneal fibroblasts; assay type: cell-based; set-up: host or cells: added to a primary culture of rabbit corneal fibroblasts; conditions: primary culture, TGF-β1 and peptide
T1 sequence (P01137 279-390 limits assumed, species assumed): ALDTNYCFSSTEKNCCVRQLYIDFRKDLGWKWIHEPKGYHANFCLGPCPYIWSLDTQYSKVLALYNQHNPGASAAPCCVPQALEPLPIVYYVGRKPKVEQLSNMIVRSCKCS
Procedure: Therefore, Western Blot and immunofluorescence studies were conducted to determine, from cells extracted from the in vivo studies, the signaling pathway used by the peptides administered topically. It should be emphasized that said studies were conducted on fibroblasts from rabbit cornea and not from rat cornea. This decision was made due to the difficulty entailed in isolating fibroblasts from rodent eyes.
Since the scientific literature repeatedly describes the TGF-β1 signaling pathways, the decision was made to go into depth in such pathways by means of the techniques described in the methodology section. Said pathways involve the study of the Smad protein family, specifically the study of the isoforms Smad2, 2/3 and 7.
To that end, protein extracts obtained from the primary culture of rabbit fibroblasts were treated with TGF-β1 at concentrations of 0, 3 and 5 ng/ml and, 50 and 200 μg/ml of peptide p17 and p144.

[2] = target: T1, TGF-β1; assay: Biopanning of phage-displayed 15-aa peptide library on biotinylated TGF-β1, number of colonies per sequence; assay type: binding; set-up: purchased Roche; host or cells: added to Mv-1-Lu (CCL-64) mink lung epithelial cells; conditions: clones carrying the sequence among 108 colonies after the last biopanning cycle; approximate indication of affinity for TGF-β1
Source text: These libraries comprise a plurality of filamentous bacteriophages (M13), each one containing a peptide genetically fused to a protein of the virus envelope—in this case bound to the N-terminal end of envelope protein pIII (FIG. 1). […] In the phage libraries, the sequence encoding the peptide originates from a sequence degenerated in each one of the 15 positions with the 20 natural amino acids, thus allowing the presentation of 1.1×10^12 possible sequences of 15 amino acids in different phages. The physical ratio, 1:1, between the peptide sequence and the DNA encoding it within the bacteriophage allows the selection (from a broad range of variants) of those sequences that specifically bind to TGF-β1. This process is carried out via an in vitro selection protocol known as “biopanning”.
This technique involves incubating a set of phages representative (to practical effects) of all the 15-aa variants, in a plate blocked with streptavidin (10 μg/ml in 0.1 M NaHCO3, during 2 h at room temperature) to which biotinylated TGF-β1 is added. […] TGF-β1 contacts the peptides carried by the phages at a concentration of […]. After about 12 hours incubation, unbound phages are eliminated by 5 washings with PBS/Tween (phosphate buffered saline/polyoxyalkylene derivatives of sorbitan fatty acid esters). […] The eluted phages are then amplified by infection in a bacterial strain (E. coli). The process is repeated three cycles so that an enrichment in the content of phages which specifically bind, and with high affinity, to TGF-β1 is achieved (FIG. 3). […] Thus, the phages selected in each cycle show more and more affinity for TGF-β1. At the end of the process, phages which have been selected for their affinity for TGF-β1, are sequenced by using primers, after isolation by tetracycline resistance of the genetically modified phages after infecting E. coli cells. […] The number of times which a sequence is repeated, corresponding to a 15 amino acids peptide carried by each clone, from the total of sequenced colonies is an indication of the degree of relative affinity of said 15 amino acids sequence for TGF-β1.
The selection of clones, obtained from the “biopanning”, was carried out by selection of the bacterial colonies infected with the phages in the presence of a bacterial antibiotic; the bacteria resistance is acquired by a tetracycline resistance gene encoded by the phage genome. Thus, only those colonies infected with bacteriophages are able to grow. This means that each colony contains the genome of only one phage coding for only one peptide presented in its surface.
A total number of 108 colonies of phage-infected bacteria were obtained from the last selection cycle of “biopanning”. The sequence of the regions coding for the peptides present in the pIII protein was carried out using primers identified with SEQ ID NO: 23. This table also reflects the number of colonies (clones) carrying said sequences.
The number of clones (colonies) of each sequence gives an approximate indication of the degree of affinity of the peptide for TGF-β1, that is, the more colonies the more binding affinity.

expression of Smad 2/3 [1]: not affected
expression of Smad 7 [1]: not modified
No. colonies [2]: 3
Sequence: KRIWFIPRSSWYERA [SEQ ID NO: 17, KRIWFIPRSSWYERA]
